Reference: patent publication EP0476944B1, “Aromatase inhibiting 4(5)-imidazoles” (ORION-YHTYMÄ OY, priority 1990, dated 1992)

Assay: Acute toxicity, oral, in mice
Details: mouse, in vivo; oral administration; young adult female mice of NMRI-strain; read-out: Acute toxicity, LD₅₀
Method: Acute toxicity, LD₅₀, was determined by using young adult female mice of NMRI-strain. The administration was oral. The LD₅₀-value for 4-[2,4-bis(4-fluorophenyl)butyl]-1H-imidazole was 400 mg/kg.

Work on Fc1ccc(CCC(Cc2c[nH]cn2)c2ccc(F)cc2)cc1 (stereo not shown) [Compound 3, 4-[2,4-bis(4-fluorophenyl)butyl]-1H-imidazole] yielded an LD50 of 400 mg/kg.
